Measured values: paper PMC8448163 (Antimicrobial Agents and Chemotherapy, 2021)
“And” between values parts separate entries of the source, which are not always exact repeats. Equal values may be shown once. Read-outs that look alike come from different tables or passages of the source.

Assays:
[1] = healthy adult males (n = 14), single oral doses 200 mg to 2,000 mg; cited from earlier work
[2] = clinical; details: human, in vivo
[3] = in vivo; details: rat, po
[4] = system: EV panel comprising 47 PV strains and 36 nonpolio EV strains; assay: microbe, parasite or virus in culture; assay type: cell-based; details: Enterovirus, read-out: EC50, mean
[5] = system: poliovirus; details: in vitro, in combination with capsid inhibitors including pocapavir; cited from earlier work
[6] = system: ECV-11 isolates; assay: organism not typed; assay type: cell-based; details: read-out: EC50, range
[7] = system: CV-A16; assay: microbe, parasite or virus in culture; assay type: cell-based; details: Enterovirus A, CVA16
[8] = system: healthy adult volunteers; assay: Phase 1 SAD study, safety and tolerability
[9] = system: healthy adult volunteers; assay: Phase 1 MAD study, safety and tolerability
[10] = for mean and individual trough concentrations: LLOQ 1.00 ng/ml; for time of peak of mean plasma concentration: MAD BID
[11] = in vivo; details: dog, po
[12] = clinical; details: human, in vivo; remark: listed apart in the source
[13] = in vitro
[14] = MAD, one participant, 2,000 mg BID cohort, day 7, normal two days later
[15] = SAD, 10-fold increase in dose from 200 mg to 2,000 mg

In the case of `C#CC[C@@H](C(=O)N[C@H](/C=C/C(=O)OCC)C[C@@H]1CCNC1=O)n1cccc(NC(=O)c2cc(C)on2)c1=O` [V-7404], the tolerability [1] is listed as “well tolerated with no serious adverse events (SAEs)”, the Tmax [2] is listed as 15 to 37.8 min and the AUC(0-inf) ([2]; po, 200 mg, AUC (AUC0–inf)) is listed as 77.4 ng·h/mL. It also gave a Cmax ([2]; po, 200 mg, Cmax) of 83.3 ng/mL, a Vd/F ([2]; po, 200 mg, Vz/F) of 1170 L and a half-life ([2]; po, 200 mg, t1/2) of 18.9 min. For the same molecule, the Tmax ([2]; po, 200 mg, tmax) was 30 min, the half-life ([2]; t1/2, range across cohorts) was 19.2 to 140 min and the NOAEL [3] was 1500 mg/kg/day. For the same molecule, the EC50 [4] was 379 nM and 0.198 µg/mL, the “activity in combination with antiviral capsid inhibitors” value [5] was “synergistic activity” and the EC50 [6] was 32 to 352 nM. The EC50 [7] was 5.99 µM, the “deaths or SAEs” value ([8]; SAD study) was “No deaths or SAEs were reported” and the “participants with moderate TEAEs” value ([8]; SAD, V-7404 group, 1/24 participants) was 4.2%. For the same molecule, the “participants with mild treatment-emergent AEs (TEAEs)” value ([8]; SAD, V-7404 group, 4/24 participants) was 16.7%, the elevated lipase ([8]; SAD, one participant, 1,000 mg cohort, day 2, asymptomatic, normal 3 days later) was 4.0 × the upper limit of normal (U and the “deaths or SAEs” value ([9]; MAD study) was “No deaths or SAEs were reported”. For the same molecule, the “proportion of related TEAEs” value ([9]; MAD, 1,000 mg QD) was 12.5%, the “proportion of related TEAEs” value ([9]; MAD, 2,000 mg BID) was 75% and the “participants with increased lipase levels (asymptomatic) leading to discontinuation” value ([9]; MAD, 2,000 mg BID cohort, 1/41 participants) was 2.4%. For the same molecule, the “proportion of related TEAEs” value ([9]; MAD, 2,000 mg QD) was 22.2%, the “participants with moderate TEAEs” value ([9]; MAD, V-7404 group, 2/33 participants) was 6.1% and the “participants with mild TEAEs” value ([9]; MAD, V-7404 group, 10/33 participants) was 30.3%. For the same molecule, the amylase [9, 14] was 2.7 × ULN, the lipase [9, 14] was 4.5 × ULN and the “mean and individual trough concentrations” value ([10]; MAD 500 mg QD, days 2, 3, 7, 11 and 14) was “BLQ”. The “mean and individual trough concentrations” value ([10]; MAD 1,000 mg QD, days 2, 3, 7, 11 and 14) was “BLQ”, the “accumulation (RAUC and RCmax)” value ([10]; MAD 2,000 mg BID, day 14) was “no accumulation” and the mean trough concentrations ([10]; MAD 2,000 mg BID, days 2, 3, 7, 11 and 14) was “either BLQ or were less than twice the LLOQ of 1.00 ng/ml”. The “time of peak of mean plasma concentration” value ([10]; following the first dose of the day) was 0.50 h, the “time of peak of mean plasma concentration” value ([10]; following the second dose of the day, day 1) was 0.75 h and the “time of peak of mean plasma concentration” value ([10]; following the second dose of the day, day 14) was 0.50 h. For the same molecule, the “RAUC and RCmax, all ratios” value ([10]; MAD QD, day 14, all dose levels) was “less than 1.5”, the mean trough concentrations ([10]; MAD, 2,000 mg QD) was “either BLQ or were less than twice the lower limit of quantification (LLOQ) of 1.00 ng/ml” and the CL/F ([10]; human, in vivo) was 1,987 liters/h. The CLss/F ([10]; human, in vivo) was 2125 L/h, the Vz/F ([10]; human, in vivo) was 6542 L and the t1/2 ([10]; human, in vivo) was 2.270 h. The CL/F ([10]; human, in vivo, po, 500 mg) was 2,076 liters/h, the “CL/F (CLss/F)” value ([10]; human, in vivo, po, 500 mg) was 1,656 liters/h and the “geometric mean AUC0–inf lower for fed compared to fasted” value (SAD 500 mg) was 50%. The “geometric mean Cmax lower for fed compared to fasted” value (SAD 500 mg) was 66%, the “increase of geometric mean AUC0–inf” value [15] was 14.2 fold and the “increase of geometric mean Cmax” value [15] was 7.6 fold. For the same molecule, the “time of peak of mean plasma concentrations” value (human, in vivo) was 0.25 to 0.75 h, the Cmax (human, in vivo, po, 500 mg) was 366.6 ng/mL and the NOAEL [11] was 1500 mg/kg/day. The Tmax [12] was 15 to 30 min, the Vd/F ([12]; Vz/F) was 3780 L and the AUC ([12]; po, 500 mg, AUC (AUC0–tau)) was 302 ng·h/mL. For the same molecule, the Cmax ([12]; po, 500 mg, Cmax) was 247 ng/mL, the Cmax at 14 days ([12]; po, 500 mg, Cmax) was 370 ng/mL and the Vd/F at 14 days ([12]; po, 500 mg, Vz/F) was 3020 L. The Tmax ([12]; po, 500 mg, tmax) was 28.8 min, the Tmax at 14 days ([12]; po, 500 mg, tmax) was 15 min and the half-life ([12]; t1/2) was 79.2 min. For the same molecule, the Tmax ([12]; tmax(0–4 h)) was 30 min, the Tmax ([12]; tmax(4–24 h)) was 45 min and the genotoxicity study results [13] was “negative”.
